The text below walks through data of patent publication US11440913B2, “Aminoimidazopyridazines as kinase inhibitors” (BRISTOL-MYERS SQUIBB COMPANY, priority 2017, dated 2022).

The target of experiment [1] is His-GST-TVMV-hRIPK1(1-324) (Homo sapiens (Human), UniProt Q13546). Briefly: RIPK1 HTRF Binding Assay. On the procedure: A solution was prepared containing 0.2 nM Anti GST-Tb (Cisbio, 61GSTTLB), 90.6 nM probe and 1 nM His-GST-TVMV-hRIPK1(1-324) in FRET Buffer (20 mM HEPES, 10 mM MgCl2, 0.015% Brij-35, 4 mM DTT, 0.05 mg/mL BSA). Using Formulatrix Tempest, the detection antibody/enzyme/probe solution ([…]) was dispensed into wells of a 1536 plate (Black Low Binding Polystyrene 1536 Plate (Corning, 3724)) containing 10 nL of compounds of interest at appropriate concentration in DMSO. The plate was incubated at rt for 1 h. FRET was measured using the EnVision plate reader (Excitation: 340 nm, Emission: 520 nm/[…]). Total signal (0% inhibition) was calculated from wells containing 10 nL DMSO only.
Sequence of His-GST-TVMV-hRIPK1(1-324) (Q13546 1-324): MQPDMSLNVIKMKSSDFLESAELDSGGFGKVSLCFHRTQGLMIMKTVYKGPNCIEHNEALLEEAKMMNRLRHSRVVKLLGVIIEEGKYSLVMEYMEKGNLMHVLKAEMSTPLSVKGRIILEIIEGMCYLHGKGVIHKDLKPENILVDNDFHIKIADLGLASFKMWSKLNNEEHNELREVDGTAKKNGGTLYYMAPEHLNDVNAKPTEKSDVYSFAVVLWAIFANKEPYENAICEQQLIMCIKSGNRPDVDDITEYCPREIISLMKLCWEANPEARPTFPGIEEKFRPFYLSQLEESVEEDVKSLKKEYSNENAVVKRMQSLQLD
The coding region of human RIPK1(1-324) flanked by NdeI site at 5′ end and stop codon TGA and XhoI site at 3′ end was codon optimized and gene synthesized at GenScript USA Inc. (Piscataway, N.J.) and subcloned into a modified pFastBacl vector (Invitrogen, Carlsbad, Calif.) with N-terminal His-GST-TVMV tag, to generate His-GST-TVMV-hRIPK1(1-324)-pFB. The fidelity of the synthetic fragment was confirmed by sequencing.

For experiment [2], the system named is MLKL phosphorylation in HT29-L23 human colorectal adenocarcinoma cells. Briefly: MLKL Phosphorylation High-Content Assay. Type of experiment: cell-based. To be noted: necroptosis induced with TNFα, SMAC mimetic and Z-VAD, 6 h, read-out: pMLKL (IC50). On the procedure:
MLKL Phosphorylation High-Content Assay
HT29-L23 human colorectal adenocarcinoma cells were maintained in RPMI 1640 medium containing 10% heat-inactivated FBS, 1% Pennicilin-Streptomycin and 10 mM HEPES. Cells were seeded at 2,000 cells/well in 384 w tissue culture-treated microplates (Greiner #781090-3B) and incubated at 37° C. (5% CO2/95% O2) for two days. On the day of assay, the cells were treated with test compounds at final concentrations of 6.25 to 0.106 μM for 30 min at 37° C. (5% CO2/95% O2). Necroptopsis was induced using a mixture of human TNFα (35 ng/mL) (Peprotech #300-01A), SMAC mimetic (from US 2015/0322111 A1) (700 nM) and Z-VAD (140 nM) (BD pharmingen #51-6936). Following six hours incubation at 37° C. (5% CO2/95% O2), the cells were fixed with 4% formaldedye (ACROS 11969-0010) for 15 min at room temperature and then permeabilized with phoshpate buffered saline (PBS) containing 0.2% Triton-X-100 for 10 min. MLKL phosporylation was detected using anti-MLKL (phospho S358) antibody (Abcam # ab187091) (1:1000 dilution in Blocking Buffer [PBS supplemented with 0.1% BSA]) with overnight incubation at 4° C. After washing three times in PBS, goat anti-rabbit Alexa-488 (1:1000 dilution) (Life Technologies, A11008) and Hoechst 33342 (Life Technologies, H3570) (1:2000 dilution) in Blocking Buffer were added for 1 h at room temperature. Following another three cycles of washes in PBS, the microplates were sealed, and cellular images were acquired in the Cellomics ArrayScan VTI high-content imager equipped with an X1 camera. Fluorescent images were taken using a 10× objective and the 386-23 BGRFRN_BGRFRN and 485-20 BGRFRN_BGRFRN filter sets, for nuclei and MLKL phosphorylation, respectively. The image sets were analyzed using the Compartmental Analysis Bioapplication software (Cellomics). The level of MLKL phosphorylation was quantified as MEAN_CircRingAvgIntenRatio. […] The IC50 value was defined as the concentration of compound that produces 50% of the maximal inhibition. The data were fitted using the 4-parameter logistic equation to calculate the IC50 and Ymax values.

Setting [3] is: HTRF binding, 1 h at rt, read-out: RIPK1 (IC50).

Structures can show the parent of a compound that is named as a salt. Where two headings read alike, the source gives them in different places.

Turning to “3-{2- acetamidoimidazo [1,2-b]pyridazin- 6-yl}-2-fluoro- N-{[2-fluoro-5- (trifluoromethoxy) phenyl] (Â^2Hâ,,)methyl} benzamide [Example 430]”, the IC50 was 3 nM in experiment [1] (setting [3]) and 9 nM in experiment [2].
On the same counts, the results for “5-{2- acetamidoimidazo [1,2-b]pyridazin- 6-yl}-N-[(1R)- 1-[2-fluoro-5- (trifluoromethyl) phenyl](2,2,2-Â^2Hâ,f) ethyl]-2 methylbenzamide [Example 425]” are > 5000 nM and 327 nM.
With “5-{2- acetamidoimidazo [1,2-b]pyridazin- 6-yl}-N-{[2- fluoro-5- (trifluoromethoxy) phenyl] (Â^2Hâ,,)methyl}-2- methylbenzamide [Example 426]”, the IC50 is 1 nM in experiment [1] (setting [3]) and 7 nM in experiment [2].
For the compound “5-{2- acetamidoimidazo[1,2-b]pyridazin- 6-yl}-N-{[2-fluoro-5- (trifluoromethyl)phenyl]methyl}-2- methoxypyridine-3-carboxamide [Example 146]”, the IC50 in experiment [1] (setting [3]) came out at 17 nM; in experiment [2] it was 48 nM.
As to “5-{2-acetamidoimidazo[1,2-b]pyridazin- 6-yl}-2-methoxy-6-methyl-N-{[2- (trifluoromethoxy)phenyl](deutero)- methyl}pyridine-3-carboxamide [Example 295]”, the IC50 in experiment [1] (setting [3]) is 10 nM; in experiment [2], 23 nM.
Turning to `CC(=O)Nc1cn2nc(-c3cncc(NS(=O)(=O)c4ccc(F)cc4)c3)ccc2n1` [Example 11 in US2009/0163489, reference compound], the IC50 in experiment [1] (comparison compound of US2009/0163489, read-out: IC50 in the RIPK1 assay) is 11000 nM.
With `CC(=O)Nc1cn2nc(-c3cc(C(=O)NCc4cccnc4OCC4CCC4)c(C)nc3C)ccc2n1` [Example 86, N-{[2-(cyclobutylmethoxy)pyridin-3-yl]methyl}-5-{2-acetamidoimidazo[1,2-b]pyridazin-6-yl}-2,6-dimethylpyridine-3-carboxamide], in experiment [2], the IC50 was determined as 27 nM.
The same measure, in the same setting: the result for `COc1ncc(-c2ccc3nc(NC(C)=O)cn3n2)cc1C(=O)NCc1ncccc1OCC(F)(F)F` [Example 101, 5-{2-acetamidoimidazo[1,2-b]pyridazin-6-yl}-2-methoxy-N-{[3-(2,2,2-trifluoroethoxy)pyridin-2-yl]methyl}pyridine-3-carboxamide, 2 TFA] reads 248 nM.
As to `COc1ncc(-c2ccc3nc(NC(C)=O)cn3n2)cc1C(=O)NCc1cc(F)ccc1C(=O)N1CCC(F)(F)C1` [Example 323, N-{[2-(3,3-difluoropyrrolidine-1-carbonyl)-5-fluorophenyl]methyl}-5-{2-acetamidoimidazo[1,2-b]pyridazin-6-yl}-2-methoxypyridine-3-carboxamide], the IC50 in experiment [2] (Homo sapiens) was 9 nM.
Regarding `COc1ncc(-c2ccc3nc(NC(C)=O)cn3n2)cc1C(=O)NCc1cc(F)cc(F)c1C(=O)N1CCC(F)(F)C1` [Example 324, N-{[2-(3,3-difluoropyrrolidine-1-carbonyl)-3,5-difluorophenyl]methyl}-5-{2-acetamidoimidazo[1,2-b]pyridazin-6-yl}-2-methoxypyridine-3-carboxamide], in experiment [2] (Homo sapiens), the IC50 was found to be 3 nM.
As for `Cc1ncc(-c2ccc3nc(NC(=O)CN4CCOCC4)cn3n2)cc1C(=O)N[C@H](C)c1cc(OC(F)(F)F)ccc1F` [Example 337, N-[(1R)-1-[2-fluoro-5-(trifluoromethoxy)-phenyl]ethyl]-2-methyl-5-{2-[2-(morpholin-4-yl)acetamido]imidazo[1,2-b]pyridazin-6-yl}pyridine-3-carboxamide], the 50% inhibitory concentration (IC50) in experiment [2] (Homo sapiens) is 11 nM.
Consider `Cc1ncc(-c2ccc3nc(NC(=O)CN4CCOCC4)cn3n2)cc1C(=O)NCC[C@@H](O)c1ccc(Cl)cc1` [Example 345, N-[(3R)-3-(4-chlorophenyl)-3-hydroxypropyl]-2-methyl-5-{2-[2-(morpholin-4-yl)acetamido]imidazo[1,2-b]pyridazin-6-yl}pyridine-3-carboxamide], for which, in experiment [2] (Homo sapiens), the IC50 turned out to be 44 nM.
As for `Cc1ncc(-c2ccc3nc(NC(=O)CN4CCOCC4)cn3n2)cc1C(=O)NCC[C@H](O)c1ccc(Cl)cc1` [Example 346, N-[(3S)-3-(4-chlorophenyl)-3-hydroxypropyl]-2-methyl-5-{2-[2-(morpholin-4-yl)acetamido]imidazo[1,2-b]pyridazin-6-yl}pyridine-3-carboxamide], the half-maximal inhibitory concentration (IC50) in experiment [2] (Homo sapiens) worked out at 82 nM.
Turning to `CC(=O)Nc1cn2nc(-c3cc(F)c(C)c(C(=O)NCc4cc(-c5cnn(C)c5)ccc4F)c3)ccc2n1` [Example 358, 5-(2-acetamidoimidazo[1,2-b]pyridazin-6-yl)-3-fluoro-N-(2-fluoro-5-(1-methyl-1H-pyrazol-4-yl)benzyl)-2-methylbenzamide], the IC50 in experiment [2] (Homo sapiens) came to 49 nM.
Turning to `CC(=O)Nc1cn2nc(-c3c(F)c(F)cc(C(=O)NCc4cc(C(F)(F)F)ccc4F)c3F)ccc2n1` [Example 369, 3-{2-acetamidoimidazo [1,2-b]pyridazin-6-yl}-2,4,5-trifluoro-N-{[2-fluoro-5-(trifluoromethyl)phenyl]methyl} benzamide], the IC50 in experiment [2] (Homo sapiens) amounted to 61 nM.
For the compound `COc1ccc(-c2ccc3nc(NC(C)=O)cn3n2)c(F)c1C(=O)NCC[C@@H](O)c1ccc(Cl)cc1` [Example 374, N-[(3R)-3-(4-chlorophenyl)-3-hydroxypropyl]-3-{2-acetamidoimidazo [1,2-b]pyridazin-6-yl}-2-fluoro-6-methoxybenzamide], in experiment [2] (Homo sapiens), the IC50 worked out at 19 nM.
The same measure, in the same setting: in the case of `CC(=O)Nc1cn2nc(-c3cc(C(=O)NCc4cc(OC(F)(F)F)ccc4F)c(Cl)cc3C)ccc2n1` [Example 393, 2-chloro-5-{2-acetamidoimidazo [1,2-b]pyridazin-6-yl}-N-{[2-fluoro-5-(trifluoromethoxy)phenyl]methyl}-4-methylbenzamide] it was 8 nM.
For `CC(=O)Nc1cn2nc(-c3ccc(C)c(C(=O)Nc4cnn(Cc5ccccc5)c4)c3)ccc2n1` [Example 399, N-(1-benzyl-1H-pyrazol-4-yl)-5-{2-acetamidoimidazo [1,2-b]pyridazin-6-yl}-2-methylbenzamide], the half-maximal inhibitory concentration (IC50) in experiment [2] (Homo sapiens) amounted to 5 nM.
Take `CC(=O)Nc1cn2nc(-c3cc(C(=O)NCC[C@@H](O)c4ccc(Cl)cc4)c(C)cc3F)ccc2n1` [Example 415, N-[(3R)-3-(4-chlorophenyl)-3-hydroxypropyl]-5-{2-acetamidoimidazo[1,2-b]pyridazin-6-yl}-4-fluoro-2-methylbenzamide]: in experiment [2] (Homo sapiens), the half-maximal inhibitory concentration (IC50) was 4 nM.
Regarding `COc1ccc(-c2ccc3nc(NC(C)=O)cn3n2)cc1C(=O)NCc1cc(OC(F)(F)F)ccc1F` [Example 418, 5-{2-acetamidoimidazo [1,2-b]pyridazin-6-yl}-N-{[2-fluoro-5-(trifluoromethoxy)phenyl]methyl}-2-methoxybenzamide], the IC50 in experiment [2] (Homo sapiens) amounted to 26 nM.
For the compound `CC(=O)Nc1cn2nc(-c3c(F)ccc(C(=O)N[C@H](C)c4cc(C(F)(F)F)ccc4F)c3F)ccc2n1` [Example 423, 3-{2-acetamidoimidazo [1,2-b]pyridazin-6-yl}-2,4-difluoro-N-[(1R)-1-[2-fluoro-5-(trifluoromethyl)phenyl]ethyl] benzamide], the IC50 in experiment [2] (Homo sapiens) was found to be 109 nM.
The same measure, in the same setting: in the case of `CC(=O)Nc1cn2nc(-c3cc(C(=O)NCc4cc(OC(F)(F)F)ccc4F)ccc3C)ccc2n1` [Example 433, 3-{2-acetamidoimidazo [1,2-b]pyridazin-6-yl}-N-{[2-fluoro-5-(trifluoromethoxy)phenyl]methyl}-4-methylbenzamide] it was 34 nM.
